Values quoted from earlier work as cited in patent US20040185057A1, “Therapeutical vaccination” (priority 2001, published 2004).

System: not given
Conditions: concentrations in the pg range
In the case of CC(=O)O[C@@H]1[C@H](O[C@@H]2O[C@@H](CO)[C@H](O)[C@H]2O)[C@@H](O[C@@H]2O[C@@H](C)[C@H](O[C@@H]3OC[C@@H](O)[C@H](O)[C@H]3O)[C@@H](O)[C@H]2O)[C@H](OC(=O)[C@]23CCC(C)(C)C[C@H]2C2=CC[C@@H]4[C@@]5(C)CC[C@H](O[C@@H]6O[C@H](C(=O)O)[C@@H](O)[C@H](O[C@@H]7OC[C@@H](O)[C@H](O)[C@H]7O)[C@H]6O[C@@H]6O[C@H](CO)[C@H](O)[C@H](O)[C@H]6O)[C@@](C)(C=O)[C@H]5CC[C@@]4(C)[C@]2(C)CC3)O[C@@H]1C [Squarroside A], the immunomodulating effect is given as “stimulant effect”.

Same assay, conditions: concentrations in the μg range
For CC(=O)O[C@@H]1[C@H](O[C@@H]2O[C@@H](CO)[C@H](O)[C@H]2O)[C@@H](O[C@@H]2O[C@@H](C)[C@H](O[C@@H]3OC[C@@H](O)[C@H](O)[C@H]3O)[C@@H](O)[C@H]2O)[C@H](OC(=O)[C@]23CCC(C)(C)C[C@H]2C2=CC[C@@H]4[C@@]5(C)CC[C@H](O[C@@H]6O[C@H](C(=O)O)[C@@H](O)[C@H](O[C@@H]7OC[C@@H](O)[C@H](O)[C@H]7O)[C@H]6O[C@@H]6O[C@H](CO)[C@H](O)[C@H](O)[C@H]6O)[C@@](C)(C=O)[C@H]5CC[C@@]4(C)[C@]2(C)CC3)O[C@@H]1C [Squarroside A], the immunomodulating effect is listed as “suppressive effect”.

System: HLA-A2 super type MHC class-I molecule, allele A*6802
Conditions: HLA-A2 allele A*6802; read-out: Binding capacity, IC50
For AIIRILQQL, the IC50 is listed as 548 nM. For KMIGGIGGFI, the IC50 is given as 3330 nM. For LLQLTVWGI, the IC50 is listed as 645 nM. In the case of LTFGWCFKL, the IC50 is given as 5.6 nM. For LTFGWCFKLV, the IC50 is given as 6.2 nM. For LVGPTPVNI, the IC50 is listed as 67.8 nM. For MASDFNLPPV, the IC50 is listed as 18.2 nM. For MTNNPPIPV, the IC50 is listed as 12.1 nM. For RILQQLLFI, the IC50 is given as 1820 nM. In the case of SLLNATDIAV, the IC50 is listed as 5480 nM.
